Data published in ChEMBL document CHEMBL1201861, “Genomics of Drug Sensitity in Cancer screening data, Wellcome Trust Sanger Institute”.

Columns and labels:
Assay in all cases: cells
Conditions in all cases: Homo sapiens
NCI-H23 = format: functional, cell-based;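 also: cell viability assay measuring growth inhibition of NCI-H23 cells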
Description: SANGER: Inhibition of human NCI-H23 cell growth in a cell viability assay.

PSN1 = format: functional, cell-based;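 also: suppression of growth of human PSN1 cells, read out by a cell viability assay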
Description: SANGER: Inhibition of human PSN1 cell growth in a cell viability assay.

SCH = format: functional, cell-based;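 also: growth inhibition of human SCH cells, read out in a cell viability assay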
Description: SANGER: Inhibition of human SCH cell growth in a cell viability assay.

EFO-21 = format: functional, cell-based;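 also: growth inhibition of EFO-21 cells measured with a viability assay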
Description: SANGER: Inhibition of human EFO-21 cell growth in a cell viability assay.

P30-OHK = format: functional, cell-based;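 also: growth inhibition of the P30-OHK cell line, read out with a cell viability assay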
Description: SANGER: Inhibition of human P30-OHK cell growth in a cell viability assay.

TE-11 = format: functional, cell-based;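 also: growth inhibition of human TE-11 cells, read out by a cell viability assay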
Description: SANGER: Inhibition of human TE-11 cell growth in a cell viability assay.

IST-MES1 = format: functional, cell-based;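 also: growth inhibition of IST-MES1 cells, measured with a cell viability assay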
Description: SANGER: Inhibition of human IST-MES1 cell growth in a cell viability assay.

A498 = format: functional, cell-based;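 also: growth inhibition of human A498 cells, read out with a cell viability assay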
Description: SANGER: Inhibition of human A498 cell growth in a cell viability assay.

PANC-08-13 = format: functional, cell-based;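 also: cell growth inhibition, measured with a cell viability assay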
Description: SANGER: Inhibition of human PANC-08-13 cell growth in a cell viability assay.

VM-CUB-1 = format: functional, cell-based;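 also: cell viability assay measuring growth inhibition of the human VM-CUB-1 cell line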
Description: SANGER: Inhibition of human VM-CUB-1 cell growth in a cell viability assay.

LS-123 = format: functional, cell-based
Description: SANGER: Inhibition of human LS-123 cell growth in a cell viability assay.

EKVX = format: functional, cell-based;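 also: growth inhibition of human EKVX cells, read out with a cell viability assay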
Description: SANGER: Inhibition of human EKVX cell growth in a cell viability assay.

HEL = format: functional, cell-based;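 also: growth inhibition of HEL cells, read out with a cell viability assay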
Description: SANGER: Inhibition of human HEL cell growth in a cell viability assay.

no-11 = format: functional, cell-based;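 also: growth inhibition of human NO-11 cells, read out with a cell viability assay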
Description: SANGER: Inhibition of human no-11 cell growth in a cell viability assay.

SJSA-1 = format: functional, cell-based;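 also: growth inhibition of human SJSA-1 cells, read out through a cell viability measurement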
Description: SANGER: Inhibition of human SJSA-1 cell growth in a cell viability assay.

SH-4 = format: functional, cell-based;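 also: growth inhibition of SH-4 cells, read out with a cell viability assay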
Description: SANGER: Inhibition of human SH-4 cell growth in a cell viability assay.

NCI-H526 = format: functional, cell-based;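 also: growth inhibition of the human NCI-H526 cell line, measured by a cell viability assay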
Description: SANGER: Inhibition of human NCI-H526 cell growth in a cell viability assay.

LU-139 = format: functional, cell-based
Description: SANGER: Inhibition of human LU-139 cell growth in a cell viability assay.

NCI-H1770 = format: functional, cell-based;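 also: growth inhibition of NCI-H1770 cells determined with a viability readout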
Description: SANGER: Inhibition of human NCI-H1770 cell growth in a cell viability assay.

CAS-1 = format: functional, cell-based;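 also: growth inhibition of CAS-1 cells, measured with a cell viability assay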
Description: SANGER: Inhibition of human CAS-1 cell growth in a cell viability assay.

OVCAR-4 = format: functional, cell-based;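 also: growth inhibition of human OVCAR-4 cells, measured with a cell viability assay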
Description: SANGER: Inhibition of human OVCAR-4 cell growth in a cell viability assay.

KURAMOCHI = format: functional, cell-based;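 also: growth inhibition of KURAMOCHI cells, read out with a cell viability assay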
Description: SANGER: Inhibition of human KURAMOCHI cell growth in a cell viability assay.

G-401 = format: functional, cell-based
Description: SANGER: Inhibition of human G-401 cell growth in a cell viability assay.

NCI-H1092 = format: functional, cell-based;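 also: cell growth inhibition measured with a cell viability assay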
Description: SANGER: Inhibition of human NCI-H1092 cell growth in a cell viability assay.

LB2518-MEL = format: functional, cell-based;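 also: growth inhibition of human LB2518-MEL cells, measured with a cell viability assay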
Description: SANGER: Inhibition of human LB2518-MEL cell growth in a cell viability assay.

NH-12 = format: functional, cell-based;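 also: growth inhibition of NH-12 cells, read out with a cell viability assay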
Description: SANGER: Inhibition of human NH-12 cell growth in a cell viability assay.

EC-GI-10 = format: functional, cell-based
Description: SANGER: Inhibition of human EC-GI-10 cell growth in a cell viability assay.

NCI-H69 = format: functional, cell-based;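 also: growth inhibition of the cell line, read out with a cell viability assay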
Description: SANGER: Inhibition of human NCI-H69 cell growth in a cell viability assay.

HH = format: functional, cell-based
Description: SANGER: Inhibition of human HH cell growth in a cell viability assay.

NCI-H1838 = format: functional, cell-based;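 also: growth inhibition of NCI-H1838 cells, determined with a cell viability readout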
Description: SANGER: Inhibition of human NCI-H1838 cell growth in a cell viability assay.

SK-N-FI = format: functional, cell-based;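 also: cell viability assay measuring growth inhibition of human SK-N-FI cells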
Description: SANGER: Inhibition of human SK-N-FI cell growth in a cell viability assay.

RCC10RGB = format: functional, cell-based;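 also: growth inhibition of human RCC10RGB cells, read out by a cell viability assay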
Description: SANGER: Inhibition of human RCC10RGB cell growth in a cell viability assay.

GB-1 = format: functional, cell-based;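 also: growth of GB-1 cells judged by a viability assay, IC50 marks the concentration inhibiting growth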
Description: SANGER: Inhibition of human GB-1 cell growth in a cell viability assay.

SF-268 = format: functional, cell-based;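 also: growth inhibition of SF-268 cells determined with a cell viability assay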
Description: SANGER: Inhibition of human SF268 cell growth in a cell viability assay.

TGBC1TKB = format: functional, cell-based;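 also: growth inhibition of TGBC1TKB cells, read out by a cell viability assay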
Description: SANGER: Inhibition of human TGBC1TKB cell growth in a cell viability assay.

RXF 393 = format: functional, cell-based;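 also: growth inhibition of human RXF 393 cells, read out with a cell viability assay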
Description: SANGER: Inhibition of human RXF393 cell growth in a cell viability assay.

EFM-19 = format: functional, cell-based;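 also: growth inhibition of human EFM-19 cells, measured in a cell viability assay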
Description: SANGER: Inhibition of human EFM-19 cell growth in a cell viability assay.

KYSE-410 = format: functional, cell-based;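 also: growth inhibition of KYSE-410 cells, measured through a cell viability readout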
Description: SANGER: Inhibition of human KYSE-410 cell growth in a cell viability assay.

MV4-11 = format: functional, cell-based, MV-4-11;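 also: cell viability readout measuring growth inhibition of human MV-4-11 cells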
Description: SANGER: Inhibition of human MV-4-11 cell growth in a cell viability assay.

LB2241-RCC = format: functional, cell-based;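 also: cell viability assay measuring how strongly the cultured human renal carcinoma line is prevented from growing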
Description: SANGER: Inhibition of human LB2241-RCC cell growth in a cell viability assay.

Lu-65 = format: functional, cell-based;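 also: growth inhibition of Lu-65 cancer cells, read out by a cell viability assay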
Description: SANGER: Inhibition of human LU-65 cell growth in a cell viability assay.

ATN-1 = format: functional, cell-based;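 also: growth inhibition of human ATN-1 cells, read out with a cell viability assay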
Description: SANGER: Inhibition of human ATN-1 cell growth in a cell viability assay.

SK-MEL-1 = format: functional, cell-based;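 also: growth inhibition of human SK-MEL-1 cells, read out by a cell viability assay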
Description: SANGER: Inhibition of human SK-MEL-1 cell growth in a cell viability assay.

NCI-H720 = format: functional, cell-based;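 also: growth inhibition of human NCI-H720 cells determined by a cell viability assay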
Description: SANGER: Inhibition of human NCI-H720 cell growth in a cell viability assay.

NCI-H446 = format: functional, cell-based;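 also: growth inhibition of NCI-H446 cells determined by a cell viability assay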
Description: SANGER: Inhibition of human NCI-H446 cell growth in a cell viability assay.

COLO-320-HSR = format: functional, cell-based;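 also: growth inhibition of COLO-320-HSR cells, determined with a cell viability assay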
Description: SANGER: Inhibition of human COLO-320-HSR cell growth in a cell viability assay.

ES6 = format: functional, cell-based;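 also: growth inhibition of human ES6 cells, read out with a cell viability assay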
Description: SANGER: Inhibition of human ES6 cell growth in a cell viability assay.

SK-MEL-2 = format: functional, cell-based;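 also: growth inhibition of human SK-MEL-2 cells measured with a cell viability assay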
Description: SANGER: Inhibition of human SK-MEL-2 cell growth in a cell viability assay.

NKM-1 = format: functional, cell-based;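 also: growth inhibition of NKM-1 cells, read out with a cell viability assay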
Description: SANGER: Inhibition of human NKM-1 cell growth in a cell viability assay.

KGN = format: functional, cell-based;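 also: growth inhibition of KGN cells, read out with a cell viability assay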
Description: SANGER: Inhibition of human KGN cell growth in a cell viability assay.

EW-13 = format: functional, cell-based;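 also: growth inhibition of EW-13 cells, read out with a cell viability assay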
Description: SANGER: Inhibition of human EW-13 cell growth in a cell viability assay.

SW982 = format: functional, cell-based;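 also: growth inhibition of SW982 cells, read out with a cell viability assay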
Description: SANGER: Inhibition of human SW982 cell growth in a cell viability assay.

MN-60 = format: functional, cell-based;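 also: growth inhibition of the MN-60 cell line, determined with a cell viability assay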
Description: SANGER: Inhibition of human MN-60 cell growth in a cell viability assay.

TE-1 = format: functional, cell-based
Description: SANGER: Inhibition of human TE-1 cell growth in a cell viability assay.

LU-99A = format: functional, cell-based;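 also: growth inhibition of LU-99A cells, read out with a cell viability assay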
Description: SANGER: Inhibition of human LU-99A cell growth in a cell viability assay.

LU-134-A = format: functional, cell-based
Description: SANGER: Inhibition of human LU-134-A cell growth in a cell viability assay.

HuP-T4 = format: functional, cell-based
Description: SANGER: Inhibition of human HuP-T4 cell growth in a cell viability assay.

NCI-H630 = format: functional, cell-based
Description: SANGER: Inhibition of human NCI-H630 cell growth in a cell viability assay.

L-363 = format: functional, cell-based
Description: SANGER: Inhibition of human L-363 cell growth in a cell viability assay.

EW-11 = format: functional, cell-based
Description: SANGER: Inhibition of human EW-11 cell growth in a cell viability assay.

NCI-H1355 = format: functional, cell-based
Description: SANGER: Inhibition of human NCI-H1355 cell growth in a cell viability assay.

KARPAS-299 = format: functional, cell-based
Description: SANGER: Inhibition of human KARPAS-299 cell growth in a cell viability assay.

M14 = format: functional, cell-based
Description: SANGER: Inhibition of human M14 cell growth in a cell viability assay.

KG-1 = format: functional, cell-based
Description: SANGER: Inhibition of human KG-1 cell growth in a cell viability assay.

LAN-6 = format: functional, cell-based
Description: SANGER: Inhibition of human LAN-6 cell growth in a cell viability assay.

SMILES: Cn1cc(/C=C2\C(=O)Nc3cccnc32)c2ccccc21
- IC50 (NCI-H23): > 2 µM
- IC50 (PSN1): > 2 µM
- IC50 (SCH): > 2 µM
- IC50 (EFO-21): > 2 µM
- IC50 (P30-OHK): > 2 µM
- IC50 (TE-11): > 2 µM
- IC50 (IST-MES1): > 2 µM
- IC50 (A498): > 2 µM
- IC50 (PANC-08-13): > 2 µM
- IC50 (VM-CUB-1): > 2 µM
- IC50 (LS-123): > 2 µM
- IC50 (EKVX): > 2 µM
- IC50 (HEL): > 2 µM
- IC50 (no-11): > 2 µM
- IC50 (SJSA-1): > 2 µM
- IC50 (SH-4): > 2 µM
- IC50 (NCI-H526): > 2 µM
- IC50 (LU-139): > 2 µM
- IC50 (NCI-H1770): > 2 µM
- IC50 (CAS-1): > 2 µM
- IC50 (OVCAR-4): > 2 µM
- IC50 (KURAMOCHI): > 2 µM
- IC50 (G-401): > 2 µM
- IC50 (NCI-H1092): > 2 µM
- IC50 (LB2518-MEL): > 2 µM
- IC50 (NH-12): > 2 µM
- IC50 (EC-GI-10): > 2 µM
- IC50 (NCI-H69): > 2 µM
- IC50 (HH): > 2 µM
- IC50 (NCI-H1838): > 2 µM
- IC50 (SK-N-FI): > 2 µM
- IC50 (RCC10RGB): > 2 µM
- IC50 (GB-1): > 2 µM
- IC50 (SF-268): > 2 µM
- IC50 (TGBC1TKB): > 2 µM
- IC50 (RXF 393): > 2 µM
- IC50 (EFM-19): > 2 µM
- IC50 (KYSE-410): > 2 µM
- IC50 (MV4-11): 0.295 µM
- IC50 (LB2241-RCC): > 2 µM
- IC50 (Lu-65): > 2 µM
- IC50 (ATN-1): > 2 µM
- IC50 (SK-MEL-1): > 2 µM
- IC50 (NCI-H720): > 2 µM
- IC50 (NCI-H446): > 2 µM
- IC50 (COLO-320-HSR): > 2 µM
- IC50 (ES6): > 2 µM
- IC50 (SK-MEL-2): > 2 µM
- IC50 (NKM-1): > 2 µM
- IC50 (KGN): > 2 µM
- IC50 (EW-13): > 2 µM
- IC50 (SW982): > 2 µM
- IC50 (MN-60): > 2 µM
- IC50 (TE-1): > 2 µM
- IC50 (LU-99A): > 2 µM
- IC50 (LU-134-A): > 2 µM
- IC50 (HuP-T4): > 2 µM
- IC50 (NCI-H630): > 2 µM
- IC50 (L-363): > 2 µM
- IC50 (EW-11): > 2 µM
- IC50 (NCI-H1355): > 2 µM
- IC50 (KARPAS-299): > 2 µM
- IC50 (M14): > 2 µM
- IC50 (KG-1): > 2 µM
- IC50 (LAN-6): > 2 µM

SMILES: NC(=O)c1ncn([C@@H]2O[C@H](COP(=O)(O)O)[C@@H](O)[C@H]2O)c1N
- IC50 (NCI-H23): > 2000 µM
- IC50 (PSN1): 1950 µM
- IC50 (SCH): > 2000 µM
- IC50 (EFO-21): > 2000 µM
- IC50 (P30-OHK): 541 µM
- IC50 (TE-11): 587 µM
- IC50 (A498): > 2000 µM
- IC50 (PANC-08-13): 1300 µM
- IC50 (VM-CUB-1): 673 µM
- IC50 (LS-123): 690 µM
- IC50 (EKVX): > 2000 µM
- IC50 (HEL): 804 µM
- IC50 (no-11): > 2000 µM
- IC50 (SJSA-1): 949 µM
- IC50 (SH-4): > 2000 µM
- IC50 (NCI-H526): 115 µM
- IC50 (LU-139): 803 µM
- IC50 (NCI-H1770): 485 µM
- IC50 (CAS-1): > 2000 µM
- IC50 (OVCAR-4): 751 µM
- IC50 (KURAMOCHI): > 2000 µM
- IC50 (G-401): > 2000 µM
- IC50 (NCI-H1092): 1220 µM
- IC50 (LB2518-MEL): > 2000 µM
- IC50 (NH-12): > 2000 µM
- IC50 (EC-GI-10): > 2000 µM
- IC50 (HH): 232 µM
- IC50 (NCI-H1838): > 2000 µM
- IC50 (RCC10RGB): > 2000 µM
- IC50 (GB-1): > 2000 µM
- IC50 (SF-268): > 2000 µM
- IC50 (TGBC1TKB): 814 µM
- IC50 (RXF 393): 710 µM
- IC50 (EFM-19): 343 µM
- IC50 (KYSE-410): > 2000 µM
- IC50 (MV4-11): 108 µM
- IC50 (LB2241-RCC): 1370 µM
- IC50 (Lu-65): > 2000 µM
- IC50 (ATN-1): 412 µM
- IC50 (SK-MEL-1): > 2000 µM
- IC50 (NCI-H446): > 2000 µM
- IC50 (COLO-320-HSR): 772 µM
- IC50 (ES6): > 2000 µM
- IC50 (SK-MEL-2): > 2000 µM
- IC50 (NKM-1): 180 µM
- IC50 (KGN): 630 µM
- IC50 (EW-13): > 2000 µM
- IC50 (SW982): > 2000 µM
- IC50 (MN-60): > 2000 µM
- IC50 (TE-1): 207 µM
- IC50 (LU-99A): > 2000 µM
- IC50 (LU-134-A): 959 µM
- IC50 (HuP-T4): > 2000 µM
- IC50 (NCI-H630): > 2000 µM
- IC50 (L-363): 179 µM
- IC50 (EW-11): 1090 µM
- IC50 (NCI-H1355): > 2000 µM
- IC50 (KARPAS-299): > 2000 µM
- IC50 (M14): 295 µM
- IC50 (KG-1): 301 µM
